Source: patent US20070293568A1, “Neurocyte Protective Agent” (priority 2006, published 2007)

Key:
[1] = system: TH positive cell specific MnSOD-deficient mice (KO mice); assay: Body weight change of KO mice given YAX in the diet; format: in vivo; settings: overall conclusion from body weight, life span and behavior in TH positive cell specific MnSOD-deficient mice
Description: As genetically modified mice serving as models for neurodegeneration, in which MnSOD has been specifically deficient in dopamine cells of the substantia nigra and noradrenaline cells of the locus ceruleus in the central nervous system, tyrosine hydroxylase (TH) positive cell specific MnSOD-deficient mice were generated based on the method described in WO 2004/014131. Specifically, first, a homozygous MnSOD flox mouse (lox/lox, +/+) was mated with a TH-Cre transgenic mouse controlled by a TH (tyrosine hydroxylase) promoter, so that heterozygous mice (lox/w, Cre/+) having the TH-Cre transgene were generated. Then, the heterozygous mouse and a MnSOD flox mouse were mated to generate the TH positive cell specific MnSOD-deficient mice (lox/lox, Cre/+) of interest.
The YAX prepared in Preparation Example 2 was used as the astaxanthin, and this was administered with the diet. […] It should be noted that for comparison, the KO mice in the control group fed with an ordinary diet not containing YAX were monitored in the same manner.
The body weight was measured once a week, and a Student's t-test was performed. The life span was analyzed using the Kaplan-Meier method. […] The behavior was analyzed by the footprinting test. […] Specifically, ink is applied to the hind feet of the mice and the mice are allowed to walk, and the width of the footprints left behind is analyzed. […]

[2] = system: mice, cerebral ischemia/reperfusion; settings: reperfusing after cerebral ischemia, astaxanthin administered; cited from earlier work
[3] = system: lipid peroxide in the blood; settings: cited from earlier work

Compound: CC1=C(/C=C/C(C)=C/C=C/C(C)=C/C=C/C=C(C)/C=C/C=C(C)/C=C/C2=C(C)C(=O)[C@@H](O)CC2(C)C)C(C)(C)C[C@H](O)C1=O [astaxanthin]
- neurocyte protective activity [1]: powerful neurocyte protective activity
- depression in motor ability [2]: suppressed
- lipid peroxide in the blood [3]: suppresses
